Reference: US20260256826A1, “PREPARATION METHOD AND APPLICATION OF ZINC HYALURONATE” (BLOOMAGE BIOTECHNOLOGY CORPORATION LIMITED, priority 2022, published 2026)

Legend:
[1] = Hydroxyl radical scavenging, salicylic acid method; settings: 0.5% solution
Excerpt: The salicylic acid method was used to determine the hydroxyl radical scavenging ability of zinc hyaluronate samples. A certain amount of H2O2 and FeSO4 were mixed to produce hydroxyl radicals by Fenton reaction. Adding salicylic acid to the reaction system can capture hydroxyl radicals and produce 3-hydroxysalicylic acid and 5-hydroxysalicylic acid. Both products have strong absorption at 510 nm. The reaction equation is as follows: The addition of the sample will compete with salicylic acid for the reaction with OH, thereby reducing the production of 3-hydroxysalicylic acid and 5-hydroxysalicylic acid. The fixed reaction time method was used to measure the absorbance of the reaction solution at 510 nm and compare it with the blank solution to determine the scavenging effect of the analyte on hydroxyl free radicals. The scavenging rate is calculated as follows: In the formula, S is the scavenging rate, A0 is the absorbance value of the blank control, Ax is the absorbance value when the sample is added, and Ax0 is the absorbance value without adding the color developer.

[2] = Superoxide anion scavenging, pyrogallol self-oxidation method; settings: 0.5% solution
Protocol: The pyrogallol self-oxidation method was used. Under weakly alkaline conditions, pyrogallol can undergo self-oxidation reaction to generate superoxide anions and a colored intermediate product with a characteristic absorption peak at 320 nm. In the initial trial stage, the amount of intermediate product is linearly related to time. Since the self-oxidation rate depends on the concentration of superoxide anions, when a superoxide anion scavenger is added, it can react quickly with superoxide anions to inhibit the self-oxidation reaction, thereby preventing the accumulation of intermediates and weakening the light absorption of the solution at 320 nm. Therefore, the scavenging effect of the scavenger on superoxide anions can be evaluated by measuring the […] value. scavenging rate of superoxide anion free radical (%)=(A0-Ax)/A0×100%

CC(=O)[O-].CC(=O)[O-].[Zn+2] [zinc acetate dihydrate]
hydroxyl free radical scavenging ability (in words) [1]: significantly lower than that of HA-Zn | superoxide anion free radical scavenging ability (in words) [2]: significantly lower than that of HA-Zn
